Measured values: PubChem BioAssay (NCI)
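1) Cells in 96-well plates. 2) Compound, 48 h, 5 concentrations. 3) Linear interpolation between surrounding doses. 4) Unreached endpoint = highest concentration. At the GI50, growth is halved. TGI marks complete inhibition of growth.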

Legend:
Experiment in all cases: DTP human tumour cell line panel, 48 h
HCT-116 colon = tested on: HCT-116 colon
HOP-92 NSCLC = tested on: HOP-92 NSCLC
HT29 colon = tested on: HT29 colon
NCI-H460 lung = tested on: NCI-H460 lung
OVCAR-3 ovarian = tested on: OVCAR-3 ovarian
OVCAR-5 ovarian = tested on: OVCAR-5 ovarian
OVCAR-8 ovarian = tested on: OVCAR-8 ovarian
RPMI-8226 leukemia = tested on: RPMI-8226 leukemia
SNB-75 CNS = tested on: SNB-75 CNS
UACC-62 melanoma = tested on: UACC-62 melanoma

| Compound | GI50 (HCT-116 colon) [µM] | TGI (HCT-116 colon) [µM] | GI50 (HOP-92 NSCLC) [µM] | TGI (HOP-92 NSCLC) [µM] | GI50 (HT29 colon) [µM] | TGI (HT29 colon) [µM] | GI50 (NCI-H460 lung) [µM] | TGI (NCI-H460 lung) [µM] | GI50 (OVCAR-3 ovarian) [µM] | TGI (OVCAR-3 ovarian) [µM] | GI50 (OVCAR-5 ovarian) [µM] | TGI (OVCAR-5 ovarian) [µM] | GI50 (OVCAR-8 ovarian) [µM] | TGI (OVCAR-8 ovarian) [µM] | GI50 (RPMI-8226 leukemia) [µM] | TGI (RPMI-8226 leukemia) [µM] | GI50 (SNB-75 CNS) [µM] | TGI (SNB-75 CNS) [µM] | GI50 (UACC-62 melanoma) [µM] | TGI (UACC-62 melanoma) [µM] |
| --- | --- | --- | --- | --- | --- | --- | --- | --- | --- | --- | --- | --- | --- | --- | --- | --- | --- | --- | --- | --- |
| O=S(=O)(Nc1ccc(Br)c(Cl)c1)c1ccc(-c2cnc(C3CC3)o2)cc1 | 0.432 | 13.6 | 0.487 | 8.72 | 0.356 | 5.23 | 0.415 | 12.6 | 0.37 | 7.32 | 1.97 | 14.1 | 1.5 | 21.4 | 0.585 | 64.8 | 0.196 | 0.662 | 0.372 | 13.6 |
| O=C(N/C(=C/c1ccc(Cl)cc1Cl)c1nc2ccccc2s1)c1ccccc1 | – | > 100 | – | > 100 | – | 40.1 | – | 52.2 | – | 24.5 | – | 32 | – | 47.4 | – | > 100 | – | 34.4 | – | 30.2 |
| CCOC(=O)c1cc2c(n1Cc1cccc(OC)c1)-c1oncc1CCC2 | 0.534 | > 100 | 2.68 | 49.2 | 0.401 | 22.8 | 3.52 | > 100 | 0.372 | 4.53 | 6.31 | > 100 | 3.21 | > 100 | 1.81 | > 43 | 0.927 | 6.56 | 0.712 | > 100 |
| Cc1ccc(-c2nc(C#N)c(S(=O)(=O)n3nc(C)cc3N)o2)cc1 | 3.16 | 13.2 | 2.27 | 5.71 | 2.37 | 5.45 | 19.5 | 41.5 | 2.08 | 3.73 | 12.4 | 27.5 | 4.66 | 20.9 | 3.07 | 10.1 | 13.7 | 27.1 | 6.32 | 19.8 |
| O=C(O)c1cc2ccc3ccccc3c2oc1=O | – | > 100 | – | > 100 | – | > 100 | – | > 100 | – | > 100 | – | > 100 | – | > 100 | – | > 100 | – | > 100 | – | > 100 |
| CC(=O)OC[C@]12CC[C@@H](C(=O)CBr)[C@@H]1[C@H]1CC[C@@H]3[C@@]4(C)CCCNC(C)(C)[C@@H]4CC[C@@]3(C)[C@]1(C)CC2 | 1.84 | 3.61 | 1.6 | 3.7 | 3.07 | 10.5 | 7.66 | 21.8 | 1.93 | 3.85 | 13.5 | 26.6 | 4.1 | 23.8 | 2.36 | 6.69 | 15.4 | 32.8 | 2.11 | 4.71 |
| CC1CC2OC(=O)C(C)C2CC2(C)C(OC3OC(CO)C(O)C(O)C3O)OCCC12 (stereo not given) | – | > 100 | – | > 100 | – | > 100 | – | > 100 | – | > 100 | – | > 100 | – | > 100 | – | > 100 | – | > 100 | – | 30.6 |
